Assay results from patent publication US11351209B2 (priority 2016, dated 2022).
Entries after “also recorded” stand apart in the source; their conditions may differ. Read-outs that look alike come from different tables or passages of the source.

Assays:
[1] = several trials; cited from earlier work
p110 delta protein = format: cell-based, BALB/c mice
[2] = system: bone marrow derived macrophages; format: cell-based, BALB/c mice
CT26 flank tumours [3] = format: in vivo, BALB/c mice; conditions: 75 mg kg^−1 IC87114 three hours before intravenous 1×10^8 PFU VVL15, days 1, 3, 4 and 5, vs vehicle buffer
CT26 flank tumours [4] = assay: Efficacy study, oral IC87114 and intravenous VVL15, CT26 flank tumours; format: in vivo, BALB/c mice; conditions: IC87114 50 mg kg^−1 oral gavage three hours before intravenous VVL15 (Group D), vs all other groups
orthotopic 4T1 tumours = assay: Efficacy study, oral IC87114 and intravenous VVL15, orthotopic 4T1 tumours; format: in vivo, BALB/c mice; conditions: 4T1 orthotopic; IC87114 75 mg kg^−1 oral gavage three hours before intravenous VVL15 (Group D); vs all other groups
Vaccinia virus = conditions: in vivo
splenocytes = assay: Ex vivo interferon gamma ELISA on splenocytes; format: in vivo, BALB/c mice; conditions: CT26-bearing mice, IC87114 75 mg kg^−1 oral three hours before intravenous VVL15
Procedure: Interferon gamma assay on splenocytes derived from BALB/c mice bearing CT26 tumours. Fifteen mice were subcutaneously injected in their shaved right flank with 1×10^6 CT26 tumour cells. […] An interferon (IFN) gamma ELISA was performed. Anti-tumour immunity: splenocytes were stimulated with mitomycin treated CT26 cells, there was no statistically significant difference between any of the groups.
FIG. 2E illustrates an ex vivo interferon gamma assay performed on splenocytes derived from BALB/c mice bearing CT26 tumours. […] Thus pre-treatment with IC87114 appears to reduce in magnitude the subsequent development of an anti-viral response. This potentially could mean that aside from the effect IC87114 has on macrophages at an early time point it has a separate more lasting effect that leads to reduced anti-viral immunity and to the establishment of an effective infection of the tumours leading to the observed improvement in efficacy compared to virus alone.

[5] = format: in vivo; conditions: Rats, oral administration

Row | Compound | toxicities in trials [1] | p110 delta protein expression (p110 delta protein) | viral attachment to wild-type macrophages compared with p110 delta knock in macrophages ([2]; wild-type macrophages pretreated 2 hours with IC87114, vs untreated wild-type (P<0.05 or P<0.01)) | amount of VVL15 attached to macrophages (qPCR) ([2]; wildtype macrophages pretreated 2 hours with IC87114 vs untreated (P<0.001)) | Vaccinia virus detected on macrophages (confocal microscopy) ([2]; wildtype macrophages pretreated 2 hours with IC87114 vs vehicle buffer) | tumour luminescence signal (CT26 flank tumours [3]) | tumour luminescence signal (CT26 flank tumours [3]; listed as IC87714) | survival (Kaplan-Meier) (CT26 flank tumours [4]) | survival (Kaplan-Meier) (orthotopic 4T1 tumours) | localisation of Vaccinia virus to the spleen (Vaccinia virus) | number of cells immunoreactive for Vaccinia coat protein per ×200 field in spleen (Vaccinia virus) | anti-tumour immunity: IFN gamma from splenocytes stimulated with mitomycin treated CT26 cells (splenocytes) | anti-viral immunity: IFN gamma from splenocytes stimulated with B8R protein (splenocytes; vs virus alone) | time to maximum plasma concentration [5] [h]
1 | CC[C@H](Nc1ncnc2[nH]cnc12)c1nc2cccc(F)c2c(=O)n1-c1ccccc1 [Idelalisib, 5-Fluoro-3-phenyl-2-[(1S)-1-(7H-purin-6-ylamino)propyl]-4(3H)-quinazolinone] | minimal toxicities |  |  |  |  |  |  |  |  |  |  |  |  | 
2 | Cc1ccccc1-n1c(Cn2cnc3c(N)ncnc32)nc2cccc(C)c2c1=O [IC87114, 2-[(6-amino-9H-purin-9-yl)methyl]-5-methyl-3-(2-methylphenyl)-4(3H)-quinazolinone] |  | does not appear to alter the amount of p110 delta protein detected | statistically significant from untreated wild-type macrophages | statistically significantly different from untreated macrophages; also recorded: significantly reduces VVL15 attachment to macrophages; also recorded: reduction in viral attachment to macrophages | less Vaccinia virus detected | significantly more signal | consistently higher tumour luminescence compared to control | improves survival; also recorded: survived significantly longer than all the other groups; also recorded: survival advantage | improves survival; also recorded: survived significantly longer than all other groups; also recorded: survival advantage | reduces the localisation of Vaccinia virus to the spleen | statistically significant difference between the groups | no effect on anti-tumour immunity | attenuates anti-viral immunity; also recorded: reduced levels of IFN gamma | 4
